Read-outs that look alike come from different tables or passages of the source.

For data set [1], the target named is T1, human NAMPT (Homo sapiens, UniProt P43490). Nature of the data set: ADP/ATP isotope exchange catalyzed by NAMPT. To be noted: for concentration required for half-maximal exchange activity: ADP/ATP exchange, 0.6 µM enzyme. The class given is biochemical.
Data set [2] concerns the target T1, human NAMPT. In words: NAMPT kinetic parameters with ATP. The class given is biochemical.
The conditions of data set [3]: cited from earlier work.
Data set [4] has as its system human vascular smooth muscular cells. To be noted: cited from earlier work.
In data set [5] the target is T1, human NAMPT. In words: Inhibition of ATP-coupled NMN synthesis. The class given is biochemical.
Data set [6] concerns the target T1, human NAMPT. Nature of the data set: Inhibition of non ATP-coupled NMN synthesis. The class given is biochemical.
The target in data set [7] is T1, human NAMPT. As to conditions: continuous fluorometric coupled assay, with ATP (2.5 mM).
For data set [8], the target named is T1, human NAMPT. In words: NAMPT kinetic parameters without ATP. The class given is biochemical. As to conditions: non ATP-coupled NMN synthesis.
Data set [9] addresses T1, human NAMPT. Nature of the data set: Stimulated ATPase activity of NAMPT. The class given is biochemical. As to conditions: 1 mM compound, 2 mM ATP; for ATP hydrolysis rate (ATPase activity): […] enzyme.
Data set [10] deals with Salmonella typhimurium NAPT. As to conditions: cited from earlier work.

T1 sequence (P43490 whole entry): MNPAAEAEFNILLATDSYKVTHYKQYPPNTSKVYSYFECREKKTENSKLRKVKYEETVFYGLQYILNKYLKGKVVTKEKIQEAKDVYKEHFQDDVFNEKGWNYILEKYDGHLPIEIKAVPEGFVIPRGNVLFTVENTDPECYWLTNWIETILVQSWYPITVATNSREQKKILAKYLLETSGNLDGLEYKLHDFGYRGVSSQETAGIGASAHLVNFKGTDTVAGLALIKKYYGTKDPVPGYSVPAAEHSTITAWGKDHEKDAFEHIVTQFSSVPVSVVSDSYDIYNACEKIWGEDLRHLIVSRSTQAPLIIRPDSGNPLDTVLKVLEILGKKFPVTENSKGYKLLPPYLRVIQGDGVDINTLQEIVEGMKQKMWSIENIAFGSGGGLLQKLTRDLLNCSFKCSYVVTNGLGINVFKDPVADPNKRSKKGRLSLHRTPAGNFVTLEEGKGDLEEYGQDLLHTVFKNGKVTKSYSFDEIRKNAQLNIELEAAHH

Regarding `Nc1ncnc2c1ncn2[C@@H]1O[C@H](COP(=O)(O)OP(=O)(O)O)[C@@H](O)[C@H]1O` [ADP], the “concentration required for half-maximal exchange activity” value in data set [1] worked out at 0.44 ± 0.05 mM.

Consider `Nc1ncnc2c1ncn2[C@@H]1O[C@H](COP(=O)(O)OP(=O)(O)OP(=O)(O)O)[C@@H](O)[C@H]1O` [ATP], for which the “concentration required for half-maximal exchange activity” value in data set [1] was 2.2 ± 0.2 mM. For the same compound, in data set [2] (ATP-coupled NMN synthesis), the Km (commonly the substrate concentration at which the rate is half of its maximum) is 7400 ± 1500 µM and the “concentration above which NMN synthesis is inhibited” value is on record as “above 4 mM”.

For the compound `Nc1ncnc2c1ncn2[C@@H]1O[C@H](COP(=O)(O)OP(=O)(O)OP(=O)(O)OP(=O)(O)OP(=O)(O)OC[C@H]2O[C@@H](n3cnc4c(N)ncnc43)[C@H](O)[C@@H]2O)[C@@H](O)[C@H]1O` [Ap5A, P^1,P^5-di(adenosine-5’-) pentaphosphate, reference compound], in data set [1] (10 µM), the “effect on ADP/ATP exchange” value is “retained the same exchange rate”.

`O=C(/C=C/c1cccnc1)NCCCCC1CCN(C(=O)c2ccccc2)CC1` [FK866, (E)-N-[4-(1-benzoylpiperidin-4-yl)butyl]-3-(pyridin-3-yl) acrylamide]: in data set [3] (clinical trials), the “binding to plasma proteins” value is “substantial drug binding to plasma proteins”, the bioavailability result is recorded as “low bioavailability” and the intravenous clearance entry is recorded as “rapid intravenous clearance”. The objective responses result in [3] (continuous intravenous infusions over 96 h for a period of 4 weeks) is “no objective responses”. Moreover, in data set [4], the “NAD+ levels” value is given as “low levels of NAD^+” and the SIRT1 activity result is on record as “decrease of SIRT1 activity”.

`NC(=O)C1=CN([C@@H]2O[C@H](COP(=O)(O)OP(=O)(O)OC[C@H]3O[C@@H](n4cnc5c(N)ncnc54)[C@H](O)[C@@H]3O)[C@@H](O)[C@H]2O)C=CC1` [NADH]: the “Ratio Km/Ki (NAM)” value in [5] (2.5 mM ATP) is on record as < 1. Besides, in data set [5] (2.5 mM ATP), the “Ratio Km/Ki (PRPP)” value is 3. The Ki (usually a measure of affinity in units of concentration, obtained from inhibition or displacement) in data set [5] (read-out: Ki versus NAM, 2.5 mM ATP) is 3.2 ± 0.2 µM; in data set [5] (read-out: Ki versus PRPP, 2.5 mM ATP) it was 0.22 ± 0.02 µM; in data set [6] (read-out: Ki versus NAM, non ATP-coupled NMN synthesis, competitive vs NAM), > 100 µM.

On to `NC(=O)c1ccc[n+]([C@@H]2O[C@H](COP(=O)([O-])OP(=O)(O)OC[C@H]3O[C@@H](n4cnc5c(N)ncnc54)[C@H](O)[C@@H]3O)[C@@H](O)[C@H]2O)c1` [NAD^+, nicotinamide adenine dinucleotide], for which the “Ratio Km/Ki (NAM)” value in [5] (2.5 mM ATP) was < 1. Besides, the “Ratio Km/Ki (PRPP)” value in [5] (2.5 mM ATP) was 5. In addition, the Ki in data set [5] (Ki versus NAM, 2.5 mM ATP) was 2.1 ± 0.2 µM; in [5] (Ki versus PRPP, 2.5 mM ATP), 0.14 ± 0.014 µM; in data set [6], > 100 µM.

As to `NC(=O)c1cccnc1` [NAM, nicotinamide], the Km in [7] is 0.057 ± 0.006 µM; in data set [2] (read-out: apparent Km (affinity), direct [14C]NAM assay with ATP, NAD+ present), 0.017 ± 0.002 µM; in [8] (no Pi), 0.855 ± 0.022 µM; in data set [8] (with Pi (2 mM phosphate)), 0.235 ± 0.017 µM.

`O=P(O)(O)NP(=O)(O)O` [PNP, imidodiphosphate, reference compound]: the “ATP hydrolysis rate (ATPase activity)” value in data set [9] turned out to be 2.6 min⁻¹.

Turning to `O=P(O)(O)OC[C@H]1O[C@H](OP(=O)(O)OP(=O)(O)O)[C@H](O)[C@@H]1O` [PRPP, α-D-5-phosphoribosyl-1-pyrophosphate], in data set [1] (100 µM), the “effect on ADP/ATP exchange” value was “near-complete inhibition”. In [9], the “effect on ATP hydrolysis” value is “inhibited ATP hydrolysis”. Moreover, the Km in data set [2] (ATP-coupled NMN synthesis) is 0.63 ± 0.03 µM; in data set [8] (no Pi), 7.2 ± 0.6 µM; in data set [8] (with Pi (2 mM phosphate)), 11.7 ± 0.8 µM; in [10] (ATP-coupled NAMN synthesis) it was 22 ± 3.3 µM; in data set [10] (non ATP-coupled NAMN synthesis), 4500 ± 2200 µM. The “fold lowering of Km by ATP” value in [2] (ATP-coupled vs non ATP-coupled) was 10 fold.

For the compound `O=P(O)(O)O` [Pi], the Km in [8] (read-out: Km of Pi) turned out to be 180 ± 20 µM.

`O=P(O)(O)OP(=O)(O)O` [pyrophosphate]: the “ATP hydrolysis rate (ATPase activity)” value in data set [9] worked out at 1.1 min⁻¹.
